Source: US10660935B2, “Methods for ameliorating memory impairment in a memory disorder caused by neuronal cell death or Abeta aggregation using a peptide” (JAPAN BIO PRODUCTS Co., Ltd., priority 2017, dated 2020)

Key:
[1] = system: Aβ25-35-treated murine cerebral cortical neural cells; experiment: Quantitative experiment for dendritic elongation; format: cell-based, ddY mouse; conditions: compared with Vehicle
Experimental: (§1) Murine cerebral cortical neural cells were prepared by the following method. Fetuses extracted from a 14-day […] ddY mouse (Japan SLC, Shizuoka) were washed with PBS, then decapitated, and added in a medium made for primary culture [12% equine serum (Life Technologies), 2 mM L-glutamic acid, and 0.6% glucose dissolved in Neurobasal media (Life Technologies, Carlsbad, Calif., USA)]. Only cerebral cortex was isolated in the medium under a stereomicroscope (SZ-61, Olympus, Tokyo).
(§2) Cerebral cortex was cut into about 1 mm-sized cubes in a safety cabinet. Centrifugation was performed at 700 rpm for 3 minutes, then the supernatant was removed, and to the precipitate was added 2 mL of 0.05% trypsin-0.53 mM EDTA solution (Life Technologies) to make a suspension. The suspension was incubated at 37° C. for 15 minutes with stirring for every 5 minutes, loaded with 4 mL of the medium, centrifuged at 700 rpm for 3 minutes to remove the supernatant, and to the precipitate was added 2 mL of 600 U/mL DNase I (Wako Pure Chemical Co., Ltd)-0.03% trypsin inhibitor (Life Technologies)-PBS solution to make a suspension.
(§3) The suspension was further incubated at 37° C. for 15 minutes with stirring for every 5 minutes, loaded with 4 mL of the medium, and centrifuged at 700 rpm for 3 minutes. The sediment was loaded with 4 mL of a calcium-magnesium-free Hank's balanced salt solution (HBSS), and centrifuged at 700 rpm for 3 minutes. 4 mL of the medium was added to the sediment.
The sediment loaded with the medium was gently suspended with a Pasteur pipette in which its tip had been heated and smoothed, until the cell clumps were invisible, and then filtrated with a 70 μm nylon cell strainer (Falcon, N.J., USA). Cell culture was performed in an 8-well chamber slide (falcon). Cells were seeded into the one coated the day before [in which Poly-D-Lysine (PDL, Wako Pure Chemical Co., Ltd) diluted with PBS to 0.005 mg/mL was plated and incubated at 37° C.; on the day of culture, it was washed twice with sterilized purified water.] Culture was started at 37° C. and 10% CO2 under saturated vapor.
In quantitative experiment for dendritic elongation, the medium was all changed with a fresh medium containing B-27 supplement (Invitrogen) instead of equine serum 5 hours and 3 days after start of culture. At medium change after 3 days, the pre-aggregated partial sequence fragment of amyloid beta (Aβ25-35) was added up to 10 μM. After another 3 days, each peptide or solvent was added when the medium was all changed into a fresh one, and after another 4 days, immunostaining was performed.
Immunostaining for quantifying dendritic elongation was performed as follows. After the end of the drug treatment term, the medium was removed and the cells were washed with PBS, added with 4% paraformaldehyde (PFA, Wako Pure Chemical Co., Ltd)-PBS solution, left standing at room temperature for an hour, and fixed. Wash with 0.3% triton X-100 (Wako Pure Chemical Co., Ltd)-PBS solution for 5 minutes was performed twice. Then, a primary antibody solution (0.3% triton X-100-PBS solution, 1% normal goat serum [Wako Pure Chemical Co., Ltd], a primary antibody) was added, and reacted at 4° C. overnight.
For the primary antibody, rabbit anti-MAP2 polyclonal antibody (1:2000) (Abcam, Cambridge, UK) was used. The next day, the primary antibody solution was removed; wash was performed twice with 0.3% triton X-100-PBS solution for 5 minutes; and then a secondary antibody solution [0.3% triton X-100-PBS solution, Alexa Fluor 488-labeled goat anti-rabbit IgG antibody (1:200) (Molecular Probes, Eugene, Oreg., USA)] was added, and reacted under shading at room temperature for 2 hours. After the reaction, the secondary antibody solution was removed, and the cells were washed twice with PBS for 5 minutes, stained for nuclei with DAPI staining, and then embedded with Aqua-Poly/Mount (Polysciences, Warrington, USA). […]

[2] = system: Aβ25-35-treated murine cerebral cortical neural cells; experiment: Quantitative experiment for presynaptic density; format: cell-based, ddY mouse; conditions: 21-day culture
Experimental: as §1, §2, §3
The sediment loaded with the medium was gently suspended with a Pasteur pipette in which its tip had been heated and smoothed, until the cell clumps were invisible, and then filtrated with a 70 μm nylon cell strainer (Falcon, N.J., USA). Cell culture was performed in an 8-well chamber slide (falcon). […]
Immunostaining for quantifying presynaptic density was performed as follows. […]

[3] = system: 5XFAD mice; experiment: Object recognition memory test; format: in vivo, mouse; conditions: continuous intraventricular infusion for 28 days keeping 10 nM in cerebrospinal fluid, 24 hours interval between training and testing, P<0.05
Description: Alzheimer's disease model mice: Transgenic mice that are animal models for Alzheimer's disease (5XFAD) were obtained from the Jackson Laboratories (Bar Harbor, Me., USA). 5XFAD mice overexpress human APP695 cDNA having mutations of Swedish (K670N and M671L), Florida (I716V), and London (V717I), and human PS1 cDNA (mutations at M146L and L286V) under transcriptional control of the neuron-specific murine Thy-1 promoter (Oakley, H. et al., J Neurosci, 26, 10129-10140, 2006). Those were maintained by crossing B6/SJL F1 breeders with hemizygous transgenic mice. […]
GPPGPAG (SEQ ID NO: 1) was dissolved in an artificial cerebrospinal fluid, and an osmotic minipump model 1004 (ALZET Osmotic Pumps, Cupertino, USA) containing the solution inserted and fixed into the right lateral ventricle of each 5XFAD mouse to inject the solution into the lateral ventricle continuously for 28 days. […] Specifically, from a peptide flow of 0.11 μL/h from the pump and a production of cerebrospinal fluid of 18 μL/h in the mouse, the concentration of the peptide solution was calculated such that the peptide concentration in the murine cerebrospinal fluid would be kept at 10 nM (which was an effective concentration in the cell experiments), and the solution prepared thereby was loaded into the pump. […]

[4] = posttreatment with 1 nM peptide for 4 days after 10 μM Aβ25-35 for 3 days
[5] = posttreatment with 10 nM peptide for 4 days after 10 μM Aβ25-35 for 3 days

| Substance | density of dendrites (length of MAP2-positive dendrites per neural cell) [1, 4] | density of dendrites (length of MAP2-positive dendrites per neural cell) [1, 5] | presynaptic density on dendrites (synaptophysin-positive area per dendrite length) ([2]; posttreatment with 1 nM, 10 nM and 100 nM, 10 μM Aβ25-35 for 3 days, peptide for 4 days) | presynaptic density on dendrites (synaptophysin-positive area per dendrite length) ([2]; posttreatment with 10 nM, 10 μM Aβ25-35, compared with Vehicle) | presynaptic density on dendrites (synaptophysin-positive area per dendrite length) ([2]; posttreatment with 100 nM, 10 μM Aβ25-35, compared with Vehicle) | exploratory preferential index at the testing stage relative to the training stage [3] |
| --- | --- | --- | --- | --- | --- | --- |
| GPPGPA: comparison peptide of amino acid sequence GPPGPA (SEQ ID NO: 4) (P4) | neither treatment with 1 nM nor 10 nM was any effect observed | neither treatment with 1 nM nor 10 nM was any effect observed | – | – | – | – |
| GPPGPAG (P1) | – | significant increase in density of dendrites | concentration-dependent increase in presynaptic density | significant increase | significant increase | significantly increased |
| GPPGPP: comparison peptide of amino acid sequence GPPGPP (SEQ ID NO: 3) (P3) | neither treatment with 1 nM nor 10 nM was any effect observed | neither treatment with 1 nM nor 10 nM was any effect observed | – | – | – | – |
| GPPGPPG (P2) | neither treatment with 1 nM nor 10 nM was any effect observed | neither treatment with 1 nM nor 10 nM was any effect observed | – | – | – | – |
| PPGPAG: comparison peptide of amino acid sequence PPGPAG (SEQ ID NO: 5) (P5) | neither treatment with 1 nM nor 10 nM was any effect observed | neither treatment with 1 nM nor 10 nM was any effect observed | – | – | – | – |
